Data from US20250340671A1, “METHODS AND PHARMACEUTICAL COMPOSITIONS FOR REDUCING THE NEURO[…] OF COCAINE” (University of Cincinnati, priority 2022, published 2025).

Assays:
[1] = tested on: lever-pressing behavior in rats; assay: Single-dose reinstatement (SDR) of lever-pressing after 12 μmol/kg cocaine; format: in vivo, Male Sprague-Dawley rats; settings: for average difference in latency between vehicle and SCH23390: 10 nmol/kg SCH23390 alone, absence of h2E2; for mean latency of lever-pressing behavior: 0 nmol/kg gave 17.11, FIG. 6; for mean duration of lever-pressing: 0 nmol/kg gave 35.44, FIG. 7
[2] = in vivo; cited from earlier work

## CN1CCc2cc(Cl)c(O)cc2[C@@H](c2ccccc2)C1 [SCH23390]
[1]; FIG. 9
  average difference in latency between vehicle and SCH23390: about 2.81 minutes
[1]; FIG. 9, listed as SCH233390
  average difference in latency between vehicle and SCH23390: 2.81 min
[1]; 10 nmol/kg SCH23390 before SDR, in the presence of h2E2 (4 separate days from day seven after h2E2), FIG. 10
  average duration of lever-pressing activity: 9.28 min
[1]; 10 nmol/kg SCH23390 before SDR, in the presence of h2E2 (from seven days after 360 umol/kg h2E2), FIG. 9
  average decrease in latency versus the prior day (h2E2 alone): 2.56 min
[1]; SCH23390 alone 10 nmol/kg IV before 12 μmol/kg cocaine SDR
  mean latency of lever-pressing behavior: 12.17
[1]; SCH23390 alone 10 nmol/kg
  mean duration of lever-pressing: 23.16
[1]; SCH23390 alone 20 nmol/kg IV before 12 μmol/kg cocaine SDR
  mean latency of lever-pressing behavior: 5.17
[1]; SCH23390 alone 20 nmol/kg
  mean duration of lever-pressing: 5.43
[1]; SCH23390 alone 30 nmol/kg IV before 12 μmol/kg cocaine SDR
  mean latency of lever-pressing behavior: 1.72
[1]; SCH23390 alone 30 nmol/kg
  mean duration of lever-pressing: 2.05
[1]; days with 10 nmol/kg SCH23390 in the presence of h2E2, FIG. 8
  average latency: 9.93 min
[2]
  t-max: approximately 30 min
